Holding throughout (experiment): biochemical
Common to all, as to parameters: Eurofins KinaseProfiler full panel at Km ATP, residual kinase activity (%) relative to DMSO

In experiment [1] the target is EGFR(L858R)(h) (Homo sapiens, UniProt P00533, L858R). The method, boiled down: (§1)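 Two 10 µM single-concentration screens were run: a competition-binding screen, in which DNA-tagged kinase bound to immobilized ligands was quantified by qPCR, and a radiometric activity panel at Km ATP. Each is expressed as residual kinase activity (%).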
EGFR(L858R)(h), sequence (P00533 whole entry L858R): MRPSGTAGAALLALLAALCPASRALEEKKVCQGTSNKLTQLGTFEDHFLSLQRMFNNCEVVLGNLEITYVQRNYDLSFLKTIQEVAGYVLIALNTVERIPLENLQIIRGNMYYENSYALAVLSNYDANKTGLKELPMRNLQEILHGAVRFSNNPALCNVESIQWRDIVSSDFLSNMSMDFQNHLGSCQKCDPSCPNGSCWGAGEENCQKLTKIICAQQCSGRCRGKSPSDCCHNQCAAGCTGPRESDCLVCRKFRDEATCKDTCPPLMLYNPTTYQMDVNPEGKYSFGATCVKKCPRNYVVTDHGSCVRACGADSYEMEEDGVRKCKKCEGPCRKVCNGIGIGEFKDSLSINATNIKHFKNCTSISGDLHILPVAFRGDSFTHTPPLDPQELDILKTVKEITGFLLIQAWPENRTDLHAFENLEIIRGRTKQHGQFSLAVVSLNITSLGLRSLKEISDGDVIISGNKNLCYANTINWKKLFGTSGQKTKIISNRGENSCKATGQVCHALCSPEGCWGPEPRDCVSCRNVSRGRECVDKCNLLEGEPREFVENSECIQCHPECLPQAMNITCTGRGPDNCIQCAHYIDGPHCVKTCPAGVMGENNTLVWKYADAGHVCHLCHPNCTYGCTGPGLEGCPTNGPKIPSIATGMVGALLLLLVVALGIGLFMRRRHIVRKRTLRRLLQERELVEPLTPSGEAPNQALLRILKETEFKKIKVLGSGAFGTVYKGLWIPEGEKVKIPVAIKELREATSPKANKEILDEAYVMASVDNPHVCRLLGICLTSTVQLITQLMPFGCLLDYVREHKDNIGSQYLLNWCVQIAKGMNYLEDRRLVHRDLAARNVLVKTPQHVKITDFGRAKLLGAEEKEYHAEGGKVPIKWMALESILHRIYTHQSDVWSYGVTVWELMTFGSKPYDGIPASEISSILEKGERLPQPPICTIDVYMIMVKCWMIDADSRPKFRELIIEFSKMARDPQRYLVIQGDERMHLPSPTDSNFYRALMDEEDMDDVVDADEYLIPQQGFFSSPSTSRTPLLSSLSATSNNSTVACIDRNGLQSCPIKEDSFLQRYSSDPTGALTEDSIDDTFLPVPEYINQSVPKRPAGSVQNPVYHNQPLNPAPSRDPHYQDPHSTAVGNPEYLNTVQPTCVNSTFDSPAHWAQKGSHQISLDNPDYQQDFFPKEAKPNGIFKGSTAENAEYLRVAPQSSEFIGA
For experiment [2], the target named is T1, Pim-1(h) (Homo sapiens, UniProt P11309).
T1 construct: gene PIM1
T1 sequence (P11309 whole entry): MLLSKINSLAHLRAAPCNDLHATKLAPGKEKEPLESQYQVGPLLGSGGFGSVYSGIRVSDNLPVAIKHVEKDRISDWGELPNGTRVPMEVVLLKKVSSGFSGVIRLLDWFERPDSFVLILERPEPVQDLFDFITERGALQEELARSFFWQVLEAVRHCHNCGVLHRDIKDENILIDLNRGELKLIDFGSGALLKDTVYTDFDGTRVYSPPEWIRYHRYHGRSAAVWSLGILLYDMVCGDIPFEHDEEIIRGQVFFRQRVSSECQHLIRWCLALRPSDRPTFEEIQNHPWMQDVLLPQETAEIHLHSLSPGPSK
The method, boiled down: as §1

Experiment [3] addresses T2, LATS1(h) (Homo sapiens, UniProt O95835).
T2 sequence (O95835 1-1130): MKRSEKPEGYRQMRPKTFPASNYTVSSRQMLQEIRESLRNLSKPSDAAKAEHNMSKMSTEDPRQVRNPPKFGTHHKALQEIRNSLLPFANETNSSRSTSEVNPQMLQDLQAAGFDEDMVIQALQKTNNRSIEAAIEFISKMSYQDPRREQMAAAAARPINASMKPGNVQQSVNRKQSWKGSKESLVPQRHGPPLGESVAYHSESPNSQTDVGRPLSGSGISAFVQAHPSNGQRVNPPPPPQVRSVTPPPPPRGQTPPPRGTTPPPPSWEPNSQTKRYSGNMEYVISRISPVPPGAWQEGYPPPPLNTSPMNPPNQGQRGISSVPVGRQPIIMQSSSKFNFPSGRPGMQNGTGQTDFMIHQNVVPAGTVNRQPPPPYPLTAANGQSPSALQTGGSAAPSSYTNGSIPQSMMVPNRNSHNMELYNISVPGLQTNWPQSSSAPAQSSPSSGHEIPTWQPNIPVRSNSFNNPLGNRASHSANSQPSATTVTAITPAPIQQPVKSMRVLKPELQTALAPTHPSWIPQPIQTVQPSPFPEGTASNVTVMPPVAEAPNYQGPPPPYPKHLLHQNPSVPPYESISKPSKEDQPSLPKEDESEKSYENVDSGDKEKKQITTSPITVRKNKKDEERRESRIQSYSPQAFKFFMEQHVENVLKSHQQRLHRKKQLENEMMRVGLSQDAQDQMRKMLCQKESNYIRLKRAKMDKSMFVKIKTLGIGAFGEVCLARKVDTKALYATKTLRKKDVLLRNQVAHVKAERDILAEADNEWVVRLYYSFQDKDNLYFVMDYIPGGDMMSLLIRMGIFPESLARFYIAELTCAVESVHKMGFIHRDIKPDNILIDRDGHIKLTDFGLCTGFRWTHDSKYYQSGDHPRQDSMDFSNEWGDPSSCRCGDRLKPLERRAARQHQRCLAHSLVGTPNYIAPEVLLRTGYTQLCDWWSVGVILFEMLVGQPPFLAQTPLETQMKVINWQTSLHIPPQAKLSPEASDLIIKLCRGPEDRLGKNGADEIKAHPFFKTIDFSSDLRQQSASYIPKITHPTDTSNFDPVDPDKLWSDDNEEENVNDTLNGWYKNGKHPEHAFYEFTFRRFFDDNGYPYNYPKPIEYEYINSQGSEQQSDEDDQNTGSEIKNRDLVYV
The method in brief: as §1

Experiment [4] concerns the target MAP4K4(h) (Homo sapiens, UniProt O95819). The method, boiled down:
as §1

In experiment [5] the target is T3, PI3 Kinase (p110b/p85b)(m) (Mus musculus, UniProt Q8BTI9).
T3 construct: gene Pik3cb
The method, boiled down: as §1

For experiment [6], the target named is T4, PDHK2(h) (Homo sapiens, UniProt Q15119).
T4 construct: gene PDK2
The method in brief:
as §1

Experiment [7] addresses ErbB2(h) (Homo sapiens, UniProt P04626). The method in brief: as §1
The target in experiment [8] is T5, CaMKIγ(h) (Homo sapiens, UniProt Q96NX5).
T5 construct: gene CAMK1G
The method in brief: as §1

The target in experiment [9] is TTBK2(h) (Homo sapiens, UniProt Q6IQ55). The method in brief: as §1
TTBK2(h), sequence (Q6IQ55 whole entry): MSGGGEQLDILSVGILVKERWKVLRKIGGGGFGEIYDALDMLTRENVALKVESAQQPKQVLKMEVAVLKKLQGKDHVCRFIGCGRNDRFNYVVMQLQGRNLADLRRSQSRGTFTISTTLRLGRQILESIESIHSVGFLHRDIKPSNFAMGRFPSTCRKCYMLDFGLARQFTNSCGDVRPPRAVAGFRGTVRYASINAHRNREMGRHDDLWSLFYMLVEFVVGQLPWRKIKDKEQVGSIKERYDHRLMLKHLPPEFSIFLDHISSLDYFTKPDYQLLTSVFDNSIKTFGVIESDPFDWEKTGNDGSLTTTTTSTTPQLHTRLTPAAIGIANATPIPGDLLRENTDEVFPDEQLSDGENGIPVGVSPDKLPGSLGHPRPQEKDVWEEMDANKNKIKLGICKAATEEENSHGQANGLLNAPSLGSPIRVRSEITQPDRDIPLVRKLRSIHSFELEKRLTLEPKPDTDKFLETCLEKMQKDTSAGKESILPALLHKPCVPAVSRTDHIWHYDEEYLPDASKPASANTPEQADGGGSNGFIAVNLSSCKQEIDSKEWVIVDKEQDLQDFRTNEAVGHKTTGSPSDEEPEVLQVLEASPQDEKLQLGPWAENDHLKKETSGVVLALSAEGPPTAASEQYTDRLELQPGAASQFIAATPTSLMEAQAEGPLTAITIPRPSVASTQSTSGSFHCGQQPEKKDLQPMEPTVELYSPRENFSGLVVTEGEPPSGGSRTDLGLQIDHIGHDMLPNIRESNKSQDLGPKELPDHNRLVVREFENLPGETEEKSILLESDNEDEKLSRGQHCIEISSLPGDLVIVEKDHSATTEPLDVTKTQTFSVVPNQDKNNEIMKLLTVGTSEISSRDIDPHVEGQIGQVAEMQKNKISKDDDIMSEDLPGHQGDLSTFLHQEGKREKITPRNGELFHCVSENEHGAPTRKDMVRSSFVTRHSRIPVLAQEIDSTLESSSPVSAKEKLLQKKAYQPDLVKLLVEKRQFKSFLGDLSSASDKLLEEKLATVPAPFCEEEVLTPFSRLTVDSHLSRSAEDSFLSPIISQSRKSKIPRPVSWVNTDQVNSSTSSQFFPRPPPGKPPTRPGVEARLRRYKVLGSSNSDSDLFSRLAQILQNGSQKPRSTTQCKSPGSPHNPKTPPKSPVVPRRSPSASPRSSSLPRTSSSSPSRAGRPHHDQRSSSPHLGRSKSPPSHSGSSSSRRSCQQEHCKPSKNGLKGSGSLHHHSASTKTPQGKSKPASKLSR
Experiment [10] has as its target Fer(h) (Homo sapiens, UniProt P16591). The method, boiled down: as §1
[11] abbreviates: read-out: Residual activity (%) Spautin-1 5aa.
Setting [12] is: read-out: Residual activity (%) 5as.
The mark [13] stands for this setting: read-out: Residual activity (%) 5at.
[14] abbreviates: read-out: Residual activity (%) 5ay.

Drawing on article PMC7827406, “Structure–Activity Relationship (SAR) Study of Spautin-1 to Entail the Discovery of Novel NEK4 Inhibitors” (International Journal of Molecular Sciences, 2021), this text covers remaining activity for four compounds.

Read-outs that look alike come from different tables or passages of the source.

Fer(h), sequence (P16591 whole entry): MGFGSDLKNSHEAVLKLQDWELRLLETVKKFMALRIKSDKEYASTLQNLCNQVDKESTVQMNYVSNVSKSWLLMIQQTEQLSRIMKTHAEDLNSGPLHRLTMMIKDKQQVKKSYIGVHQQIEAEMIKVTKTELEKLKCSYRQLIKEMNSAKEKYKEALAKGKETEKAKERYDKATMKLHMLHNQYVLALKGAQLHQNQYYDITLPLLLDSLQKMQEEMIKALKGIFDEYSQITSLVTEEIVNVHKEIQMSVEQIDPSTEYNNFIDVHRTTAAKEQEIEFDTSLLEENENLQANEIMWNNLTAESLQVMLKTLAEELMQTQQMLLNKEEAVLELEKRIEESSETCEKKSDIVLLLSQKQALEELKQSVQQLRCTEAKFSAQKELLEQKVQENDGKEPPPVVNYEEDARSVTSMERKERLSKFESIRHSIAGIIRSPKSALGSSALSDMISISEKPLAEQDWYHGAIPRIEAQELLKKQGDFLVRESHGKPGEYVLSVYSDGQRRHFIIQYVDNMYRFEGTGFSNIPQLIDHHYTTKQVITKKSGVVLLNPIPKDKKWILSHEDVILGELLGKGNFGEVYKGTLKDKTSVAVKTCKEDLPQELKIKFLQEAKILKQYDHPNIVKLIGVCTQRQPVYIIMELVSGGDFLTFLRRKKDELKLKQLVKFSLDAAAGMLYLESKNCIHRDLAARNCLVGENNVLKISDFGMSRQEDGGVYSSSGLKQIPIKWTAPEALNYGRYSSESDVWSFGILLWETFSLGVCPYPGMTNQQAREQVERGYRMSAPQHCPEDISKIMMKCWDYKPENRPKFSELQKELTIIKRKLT
ErbB2(h), sequence (P04626 whole entry): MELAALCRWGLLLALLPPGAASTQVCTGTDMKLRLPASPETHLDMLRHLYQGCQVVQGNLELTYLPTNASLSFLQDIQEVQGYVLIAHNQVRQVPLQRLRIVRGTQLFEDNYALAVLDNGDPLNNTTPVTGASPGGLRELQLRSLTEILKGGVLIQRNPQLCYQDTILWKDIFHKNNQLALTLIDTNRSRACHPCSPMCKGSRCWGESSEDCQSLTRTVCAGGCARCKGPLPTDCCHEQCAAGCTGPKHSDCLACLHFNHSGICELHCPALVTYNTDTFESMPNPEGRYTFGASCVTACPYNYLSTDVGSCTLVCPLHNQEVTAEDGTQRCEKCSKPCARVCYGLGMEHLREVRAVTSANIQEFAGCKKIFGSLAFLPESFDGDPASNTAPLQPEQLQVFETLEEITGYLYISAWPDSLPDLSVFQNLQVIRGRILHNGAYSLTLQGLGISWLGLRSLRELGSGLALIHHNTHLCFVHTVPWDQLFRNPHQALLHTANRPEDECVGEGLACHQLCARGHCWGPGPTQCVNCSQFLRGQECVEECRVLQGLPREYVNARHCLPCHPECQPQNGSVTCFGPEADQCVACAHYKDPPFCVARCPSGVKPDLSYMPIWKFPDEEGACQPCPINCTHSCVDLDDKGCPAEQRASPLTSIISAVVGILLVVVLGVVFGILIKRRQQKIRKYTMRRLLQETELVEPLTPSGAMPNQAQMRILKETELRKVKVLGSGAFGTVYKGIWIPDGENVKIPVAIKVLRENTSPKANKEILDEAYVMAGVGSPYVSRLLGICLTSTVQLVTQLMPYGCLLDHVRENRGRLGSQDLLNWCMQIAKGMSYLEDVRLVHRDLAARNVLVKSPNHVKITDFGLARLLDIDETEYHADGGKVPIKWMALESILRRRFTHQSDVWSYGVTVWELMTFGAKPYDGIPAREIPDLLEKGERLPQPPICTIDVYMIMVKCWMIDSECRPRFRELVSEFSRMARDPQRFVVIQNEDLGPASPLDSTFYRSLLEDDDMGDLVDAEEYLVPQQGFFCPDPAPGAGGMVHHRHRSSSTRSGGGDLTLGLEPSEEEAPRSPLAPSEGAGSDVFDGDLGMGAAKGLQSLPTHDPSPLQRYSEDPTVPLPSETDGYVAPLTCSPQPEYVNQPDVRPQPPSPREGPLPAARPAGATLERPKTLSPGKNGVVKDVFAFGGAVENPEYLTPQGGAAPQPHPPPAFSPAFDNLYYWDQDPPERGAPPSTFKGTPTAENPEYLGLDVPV

In the case of `Fc1ccc(CNc2ncnc3ccc(F)cc23)cc1` [5aa, 6-Fluoro-N-(4-fluorobenzyl)-4-Quinazolinamine], the remaining activity at 10 µM was 23% in experiment [1] (setting [11]); 66% in experiment [2] (setting [11]); 102% in experiment [3] (setting [11]); 75% in [4] (setting [11]); 97% in experiment [5] (setting [11]); 103% in [6] (setting [11]). The remaining activity at 10 µM in [7] (setting [11]) came to 74%; in [8] (setting [11]), 95%; in experiment [9] (setting [11]), 117%; in experiment [10] (setting [11]), 76%.
Take `Fc1ccc(CCNc2ncnc3ccc(F)cc23)cc1` [5as, 6-Fluoro-N-[2-(4-Fluorophenyl)Ethyl]-4-Quinazolinamine]: the remaining activity at 10 µM was 37% in experiment [1] (setting [12]); 73% in experiment [2] (setting [12]); 79% in experiment [3] (setting [12]); 75% in [4] (setting [12]); 86% in experiment [5] (setting [12]); 93% in experiment [6] (setting [12]). The remaining activity at 10 µM came out at 79% in [7] (setting [12]), 94% in experiment [8] (setting [12]), 107% in experiment [9] (setting [12]) and 98% in experiment [10] (setting [12]).
Take `Fc1ccc2ncnc(NCCc3ccc(Cl)cc3)c2c1` [5at, N-[2-(4-Chlorophenyl)Ethyl]-6-Fluoro-4-Quinazolinamine]: the remaining activity at 10 µM was determined as 60% in [1] (setting [13]); 70% in experiment [2] (setting [13]); 83% in experiment [3] (setting [13]); 92% in [4] (setting [13]); 87% in experiment [5] (setting [13]); 87% in experiment [6] (setting [13]). In addition, the remaining activity at 10 µM in [7] (setting [13]) stood at 65%; in experiment [8] (setting [13]) it was 87%; in experiment [9] (setting [13]) it was 111%; in experiment [10] (setting [13]) it was 94%.
Take `COc1ccc2ncnc(Nc3cccc(F)c3)c2c1` [5ay, N-(3-Fluorophenyl)-6-Methoxy-4-Quinazolinamine]: the remaining activity at 10 µM turned out to be 3% in experiment [1] (setting [14]); 39% in [2] (setting [14]); 79% in experiment [3] (setting [14]); 73% in experiment [4] (setting [14]); 89% in [5] (setting [14]); 94% in experiment [6] (setting [14]). For the same compound, the remaining activity at 10 µM in experiment [7] (setting [14]) amounted to 20%; in experiment [8] (setting [14]), 94%; in experiment [9] (setting [14]), 114%; in [10] (setting [14]), 80%.
